In ChEMBL document CHEMBL1158195, “Antitumor germacranolides from Anvillea garcinii” (1996):
Values after ≈ are worked out from the molar mass of the structure shown. Active and inactive are the calls of the source. No cut-off for these calls is given here.

How the values were obtained:
[1] = tested on: CCRF-CEM; experiment: Cytotoxicity against human CCRF-CEM cells; assay type: functional; conditions: read-out: ED50 (the source's name)
[2] = tested on: MOLT-4; experiment: Cytotoxicity against human MOLT4 cells; assay type: functional; conditions: read-out: ED50 (the source's name)
[3] = tested on: HOP-62; experiment: Cytotoxicity against human HOP62 cells; assay type: functional; conditions: read-out: ED50 (the source's name)
[4] = tested on: NCI-H522; experiment: Cytotoxicity against human NCI-H522 cells; assay type: functional; conditions: read-out: ED50 (the source's name)
[5] = tested on: HCT-116; experiment: Cytotoxicity against human HCT116 cells; assay type: functional; conditions: read-out: ED50 (the source's name)
[6] = tested on: SW-620; experiment: Cytotoxicity against human SW620 cells; assay type: functional; conditions: read-out: ED50 (the source's name)
[7] = tested on: SF-268; experiment: Cytotoxicity against human SF268 cells; assay type: functional; conditions: read-out: ED50 (the source's name)
[8] = tested on: SNB-75; experiment: Cytotoxicity against human SNB75 cells; assay type: functional; conditions: read-out: ED50 (the source's name)
[9] = tested on: LOX IMVI; experiment: Cytotoxicity against human LOXIMVI cells; assay type: functional; conditions: read-out: ED50 (the source's name)
[10] = tested on: Malme-3M; experiment: Cytotoxicity against human MALME-3M cells; assay type: functional; conditions: read-out: ED50 (the source's name)
[11] = tested on: IGROV-1; experiment: Cytotoxicity against human IGROV1 cells; assay type: functional; conditions: read-out: ED50 (the source's name)
[12] = tested on: OVCAR-8; experiment: Cytotoxicity against human OVCAR8 cells; assay type: functional; conditions: read-out: ED50 (the source's name)
[13] = tested on: ACHN; experiment: Cytotoxicity against human ACHN cells; assay type: functional; conditions: read-out: ED50 (the source's name)
[14] = tested on: UO-31; experiment: Cytotoxicity against human UO31 cells; assay type: functional; conditions: read-out: ED50 (the source's name)
[15] = tested on: PC-3; experiment: Cytotoxicity against human PC3 cells; assay type: functional; conditions: read-out: ED50 (the source's name)
[16] = tested on: DU-145; experiment: Cytotoxicity against human DU145 cells; assay type: functional; conditions: read-out: ED50 (the source's name)
[17] = tested on: MDA-MB-231; experiment: Cytotoxicity against human MDA-MB-231 cells; assay type: functional; conditions: read-out: ED50 (the source's name)
[18] = tested on: BT-549; experiment: Cytotoxicity against human BT549 cells; assay type: functional; conditions: read-out: ED50 (the source's name)
[19] = tested on: T47D; experiment: Cytotoxicity against human T47D cells; assay type: functional; conditions: read-out: ED50 (the source's name)
[20] = tested on: Human immunodeficiency virus; experiment: Antiviral activity against HIV in human H9 cells assessed as virus-induced cytopathic effect; assay type: functional, organism-based

Compound	EC50 [1] [µg/mL]	EC50 [2] [µg/mL]	EC50 [3] [µg/mL]	EC50 [4] [µg/mL]	EC50 [5] [µg/mL]	EC50 [6] [µg/mL]	EC50 [7] [µg/mL]	EC50 [8] [µg/mL]	EC50 [9] [µg/mL]	EC50 [10] [µg/mL]	EC50 [11] [µg/mL]	EC50 [12] [µg/mL]	EC50 [13] [µg/mL]	EC50 [14] [µg/mL]	EC50 [15] [µg/mL]	EC50 [16] [µg/mL]	EC50 [17] [µg/mL]	EC50 [18] [µg/mL]	EC50 [19] [µg/mL]	Activity [20]
C=C1C(=O)O[C@H]2[C@H]1CC(=O)/C(C)=C/CC[C@@]1(C)O[C@@H]21	0.05 (≈ 0.191 µM)	0.07 (≈ 0.267 µM)	0.63 (≈ 2.4 µM)	0.15 (≈ 0.572 µM)	0.45 (≈ 1.72 µM)	0.21 (≈ 0.801 µM)	1.73 (≈ 6.6 µM)	4.38 (≈ 16.7 µM)	0.11 (≈ 0.419 µM)	0.33 (≈ 1.26 µM)	0.94 (≈ 3.58 µM)	0.78 (≈ 2.97 µM)	0.3 (≈ 1.14 µM)	0.28 (≈ 1.07 µM)	0.9 (≈ 3.43 µM)	3.3 (≈ 12.6 µM)	0.17 (≈ 0.648 µM)	0.34 (≈ 1.3 µM)	0.45 (≈ 1.72 µM)	inactive
C=C1C(=O)O[C@H]2[C@H]1C[C@@H](O)/C(C)=C/CC[C@@]1(C)O[C@@H]21	0.84 (≈ 3.18 µM)	0.94 (≈ 3.56 µM)	1.32 (≈ 4.99 µM)	0.5 (≈ 1.89 µM)	1.66 (≈ 6.28 µM)	1.08 (≈ 4.09 µM)	10.3 (≈ 39 µM)		1.66 (≈ 6.28 µM)	1.07 (≈ 4.05 µM)	8.63 (≈ 32.6 µM)	4.07 (≈ 15.4 µM)	1.91 (≈ 7.23 µM)	7.63 (≈ 28.9 µM)	11.6 (≈ 44 µM)	6.73 (≈ 25.5 µM)	4.49 (≈ 17 µM)	2.77 (≈ 10.5 µM)	1.54 (≈ 5.83 µM)	inactive
C=C1C(=O)O[C@H]2[C@H]1C[C@H](O)/C(C)=C/CC[C@@]1(C)O[C@@H]21	0.8 (≈ 3.03 µM)	0.68 (≈ 2.57 µM)	4.57 (≈ 17.3 µM)	0.45 (≈ 1.7 µM)	3.83 (≈ 14.5 µM)	0.55 (≈ 2.08 µM)	7.76 (≈ 29.4 µM)	8.53 (≈ 32.3 µM)	2.46 (≈ 9.31 µM)	1.62 (≈ 6.13 µM)	3.91 (≈ 14.8 µM)	4.75 (≈ 18 µM)	2.21 (≈ 8.36 µM)	3.88 (≈ 14.7 µM)		5.6 (≈ 21.2 µM)	4.99 (≈ 18.9 µM)			inactive
C=C1C(=O)O[C@H]2[C@H]1C[C@@H](O)[C@@]1(C)O[C@@H]1CC[C@@]1(C)O[C@@H]21	1.44 (≈ 5.14 µM)	1.67 (≈ 5.96 µM)	4.82 (≈ 17.2 µM)	1.53 (≈ 5.46 µM)	4.96 (≈ 17.7 µM)	3.72 (≈ 13.3 µM)	13.5 (≈ 48.1 µM)	20.8 (≈ 74 µM)	3.7 (≈ 13.2 µM)	3.28 (≈ 11.7 µM)		9.72 (≈ 34.7 µM)	3.84 (≈ 13.7 µM)	4.76 (≈ 17 µM)	7.59 (≈ 27.1 µM)	10.2 (≈ 36.5 µM)	5.35 (≈ 19.1 µM)			inactive
C=C1C(=O)O[C@H]2[C@H]1C[C@H](O)[C@@]1(C)O[C@@H]1CC[C@@]1(C)O[C@@H]21	2.43 (≈ 8.67 µM)	2.83 (≈ 10.1 µM)	5.74 (≈ 20.5 µM)	0.78 (≈ 2.78 µM)	4.65 (≈ 16.6 µM)	3.81 (≈ 13.6 µM)	12.1 (≈ 43.2 µM)	22.5 (≈ 80.3 µM)		3.36 (≈ 12 µM)	4.17 (≈ 14.9 µM)	5.32 (≈ 19 µM)	5.07 (≈ 18.1 µM)	4.79 (≈ 17.1 µM)	4.98 (≈ 17.8 µM)	9.66 (≈ 34.5 µM)		3.86 (≈ 13.8 µM)	5.4 (≈ 19.3 µM)	inactive
